In article PMC3183052, “Immunoprotectivity of HLA-A2 CTL Peptides Derived from Respiratory Syncytial Virus Fusion Protein in HLA-A2 Transgenic Mouse” (PLoS ONE, 2011):

What was measured:
HLA-A*0201 = biological target: T1, HLA-A*0201 (Homo sapiens, UniProt P04439, D140Y/D185E/D98H/E176V/E277Q/G131W/G231S/I119V/I121R/I166T/I218V/L300P/L318F/N151K/N90K/P208A/P217A/Q86G/Q94H/R138H/R169H/T345S); assay: T2 cell-stabilization assay (T2-binding); settings: for T2-binding Ratio of MFI: T2 cells 5×10^5, peptide 50 µg/mL + β2-microglobulin 5 µg/mL, 28°C 16–18 h, then brefeldin A 10 µg/mL 37°C 3 h, FITC anti-HLA-A2, flow cytometry, MFI relative to negative control HCV C55-74 (set as 1); for binding affinity, MFI higher than the baseline: T2 cell-based binding assay, baseline = negative control HCV C55-74, called modest binding affinity
T1 construct: Human T2 cells (purchased from the American Type Culture Collection, ATCC) (ATCC No. CRL-1992) expressing the HLA-A*0201 gene; endogenous in cells; host or cells: human T2 cells (ATCC CRL-1992)
Procedure: T2 cells (5×10^5) cultured in 96-well U-bottom plates were incubated with the individual 9-mer synthetic peptides (50 µg/mL) and β2-microglobulin (5 µg/mL; Sigma-Aldrich) at 28°C for 16–18 hours. Subsequently, brefeldin A (10 µg/mL) was added and the cells were incubated at 37°C for another 3 hours, then washed and stained with fluorescence isothiocyanate (FITC)-conjugated mouse anti-human HLA-A2 antibody (SeroTec). Peptide-loaded T2 cells were acquired and analyzed on the FACScan flow cytometer using CellQuest software (Becton Dickinson). GLC-9 peptide was used as positive control (PC). The mean fluorescence intensity (MFI) represents the binding affinity of each peptide compared to MFI (set as MFI = 1) obtained from negative control (NC), which is T2 cells loaded with HCV peptide C55-74.
Twenty-five 9-mer synthetic peptides derived from the RSV F glycoprotein sequence presumed to encompass HLA-A*0201 binding motifs were synthesized (Table 1). Each was tested for its ability to bind HLA-A*0201 molecules by T2 cell-based binding assay (data not shown). The relative mean fluorescence intensity (MFI) obtained from the positive control (PC) peptide derived from Epstein-Barr virus capsid protein (GLC-9, a previously defined HLA-A*0201-restricted CTL epitope) was twofold (MFI = 1.96) compared to the baseline MFI = 1 obtained from the negative control (NC) treated with an unrelated peptide HCV C55-74 (a C57BL/6-specific CD4 epitope). […] The remaining peptides had no detectable binding to the HLA-A*0201 molecules. Apparently, the different MFIs generated by binding of RSV F-derived peptides to HLA-A*0201 reflects on the binding specificity of different peptides to a given HLA molecule.

[1] = tested on: splenocytes from HLA-A*0201 transgenic C57BL/6 mice; assay: IL-2 ELISPOT of splenocytes restimulated with peptide; type: cell-based, mouse; settings: for IL-2 ELISPOT, RSV: splenocytes of HLA-Tg B6 mice primed and boosted i.n. with 10^4 pfu RSV-B1; for IL-2 ELISPOT, RSV / IL-2 ELISPOT, rAd-F0: restimulated with 2 µg peptide, representative of two experiments, five mice per group; for IL-2 ELISPOT, rAd-F0: splenocytes of HLA-Tg B6 mice primed and boosted i.n. with 10^7 pfu rAd-F0; for IL-2 level in restimulated splenocytes (ELISPOT, text grading): splenocytes of rAd-F0- or RSV B1-primed and boosted HLA-Tg B6 mice, high = over 100 spots, moderate = over 50 spots
Procedure: (§1) To screen the immunodominance of epitopic peptide in the induction of RSV-F specific Th1/Th2 expression, HLA-A*0201 transgenic C57BL/6 mice were anesthetized with isoflurane and immunized with 1×10^7 pfu/50 µL of rAd-F0 or rAd-LacZ or 1×10^4 live RSV B1 via the intranasal (i.n.) route. Twenty days later, the mice were given booster immunization i.n. with the same dose. After 10 days of boost, mice were sacrificed and splenocytes were isolated for the cytokine ELISPOT assay. For peptide-based vaccination, transgenic mice were immunized subcutaneously (s.c.) with 50 µg of the individual synthetic peptides emulsified in 25 µL of incomplete Freund's adjuvant (IFA) (Sigma-Aldrich) and then boosted after 10 days s.c. with the same dose of the respective peptides mixed with IFA. Mice were sacrificed 7 days after the booster and splenocytes were isolated for in vitro peptide-restimulation. For challenge studies, 10^7 pfu of live RSV-B1 was administered i.n. seven days after the booster immunization with peptide vaccines. Mice were sacrificed on day 4 post-challenge and the lung tissues were collected and subjected to further analysis by flow cytometry, ELISA, CTL assay and immunohistochemistry. Mice body weight was monitored daily.
(§2) […] RBC-free splenocyte suspensions prepared from the individual mice were seeded in individual wells of 96-well filtration plates (Millipore) precoated with capturing monoclonal antibodies for murine IL-2, IL-4 or IFN-γ (0.5 µg/ well) (eBioscience) and blocked with conditioned medium (CM) for 1 hour at room temperature. The splenocytes were added with the individual RSV F 9-mer synthetic peptides (2 µg each) or GLC-9 dissolved in CM (100 µL). The splenocytes added with Con A (10 µg/mL) were used as positive control. Unstimulated splenocytes were used as negative control. The plates were kept in a 37°C incubator equilibrated with 5% CO2 for 48 hours. The individual wells of the ELISPOT plates were washed three times with washing buffer (0.05% tween20 in PBS, PBS-T), and then 0.2 µg of the corresponding biotinylated detection monoclonal antibodies specific for IL-2, IL-4 and IFN-γ were added to detect the respective cytokines. After 2 hours of incubation at room temperature, the plates were washed and 100 µl of streptavidin-alkaline phosphatase (1∶ 250 dilution) was added to the individual wells, and the plates were incubated at room temperature for 45 minutes. Finally, the plates were washed four times with the wash buffer, and 100 µl of AEC (3-amine-9-ethylcarbazole, Sigma-Aldrich) substrate was added to each well and allowed to react for 30 minutes at room temperature in the dark. The plates were then washed with water, air-dried overnight, and the spots per well were scored using the immunospot counting reader (C.T.L. IMMUNOSPOT, CELLULAR TECHNOLOGY LTD). Results were expressed as the number of cytokine-secreting cells per 5×10^5 splenocytes seeded in the initial culture.
(§3) Figure 1 Induction of IFN-γ and IL-2 in splenocytes from RSV F peptide immunized HLA-A*0201 transgenic mice upon secondary recall. Splenocytes harvested on day 30 from HLA-A-Tg B6 mice primed and boosted at 20 days interval intranasally with 10^7 pfu of rAd-F0 (□) or 10^4 pfu of RSV-B1 (▪)were restimulated with 2 µg of the individual RSV F peptide or 10 µg/ml Con A for 5 days in the presence of murine IL-2 . After stimulation, 5×10^5 splenocytes were seeded to anti-IFN-γ (A) or anti-IL-2 (B) capture antibody coated ELISPOT plates for 2 days for ELISPOT assay as described in Materials and Methods. Cytokine-positive immunospots were developed and the results are expressed as the number of immunospots +/−2 standard deviations for each experimental group. Data is representative of results derived from two independent experiments, each with five mice per group.

[2] = tested on: splenocytes from HLA-A*0201 transgenic C57BL/6 mice; assay: IFN-γ ELISPOT of splenocytes restimulated with peptide; type: cell-based, mouse; settings: for IFN-γ ELISPOT, RSV: splenocytes of HLA-Tg B6 mice primed and boosted i.n. with 10^4 pfu RSV-B1; for IFN-γ ELISPOT, RSV / IFN-γ ELISPOT, rAd-F0: restimulated with 2 µg peptide, representative of two experiments, five mice per group; for IFN-γ ELISPOT, rAd-F0: splenocytes of HLA-Tg B6 mice primed and boosted i.n. with 10^7 pfu rAd-F0; for IFN-γ level in restimulated splenocytes (ELISPOT, text grading): splenocytes of rAd-F0- or RSV B1-primed and boosted HLA-Tg B6 mice, high = over 100 spots, moderate = over 50 spots
Procedure: as §1, §2, §3

| Substance | T2-binding Ratio of MFI (HLA-A*0201) | IL-2 ELISPOT, RSV [1] | IL-2 ELISPOT, rAd-F0 [1] | IL-2 level in restimulated splenocytes (ELISPOT, text grading) [1] | IFN-γ ELISPOT, RSV [2] | IFN-γ ELISPOT, rAd-F0 [2] | IFN-γ level in restimulated splenocytes (ELISPOT, text grading) [2] | binding affinity, MFI higher than the baseline (HLA-A*0201) |
| --- | --- | --- | --- | --- | --- | --- | --- | --- |
| 15: HLA-A*0201-restricted 9-mer synthetic peptide from F protein of RSV-B1 strain (KLMSNNVQI) [compound 15] | 1.51 | 59.5 cytokine-secreting cells per 5×10^5 splenocytes | 37 cytokine-secreting cells per 5×10^5 splenocytes | over 50 spots | 0 cytokine-secreting cells per 5×10^5 splenocytes | 39 cytokine-secreting cells per 5×10^5 splenocytes | – | – |
| 16: HLA-A*0201-restricted 9-mer synthetic peptide from F protein of RSV-B1 strain (LMSNNVQIV) [compound 16] | 1.60 | 50.5 cytokine-secreting cells per 5×10^5 splenocytes | 52 cytokine-secreting cells per 5×10^5 splenocytes | over 50 spots | 28 cytokine-secreting cells per 5×10^5 splenocytes | 54 cytokine-secreting cells per 5×10^5 splenocytes | over 50 spots | – |
| 18: HLA-A*0201-restricted 9-mer synthetic peptide from F protein of RSV-B1 strain (SVGNTLYYV) [compound 18] | 1.29 | 42 cytokine-secreting cells per 5×10^5 splenocytes | 0 cytokine-secreting cells per 5×10^5 splenocytes | – | 92.5 cytokine-secreting cells per 5×10^5 splenocytes | 115 cytokine-secreting cells per 5×10^5 splenocytes | over 100 spots | ~10% |
| 19: HLA-A*0201-restricted 9-mer synthetic peptide from F protein of RSV-B1 strain (KINQSLAFI) [compound 19] | 1.08 | 36.5 cytokine-secreting cells per 5×10^5 splenocytes | 52 cytokine-secreting cells per 5×10^5 splenocytes | over 50 spots | 7.5 cytokine-secreting cells per 5×10^5 splenocytes | 200 cytokine-secreting cells per 5×10^5 splenocytes | over 100 spots | – |
| 20: HLA-A*0201-restricted 9-mer synthetic peptide from F protein of RSV-B1 strain (IMITTIIIV) [compound 20] | 1.03 | 24.5 cytokine-secreting cells per 5×10^5 splenocytes | 32 cytokine-secreting cells per 5×10^5 splenocytes | – | 9 cytokine-secreting cells per 5×10^5 splenocytes | 200 cytokine-secreting cells per 5×10^5 splenocytes | over 100 spots | – |
| 21: HLA-A*0201-restricted 9-mer synthetic peptide from F protein of RSV-B1 strain (IIIVIIVIL) [compound 21] | 0.88 | 21 cytokine-secreting cells per 5×10^5 splenocytes | 2.5 cytokine-secreting cells per 5×10^5 splenocytes | – | 80 cytokine-secreting cells per 5×10^5 splenocytes | 16.5 cytokine-secreting cells per 5×10^5 splenocytes | over 50 spots | – |
| 22: HLA-A*0201-restricted 9-mer synthetic peptide from F protein of RSV-B1 strain (VIIVILLSL) [compound 22] | 0.97 | 55 cytokine-secreting cells per 5×10^5 splenocytes | 21.5 cytokine-secreting cells per 5×10^5 splenocytes | over 50 spots | 49 cytokine-secreting cells per 5×10^5 splenocytes | 88.5 cytokine-secreting cells per 5×10^5 splenocytes | over 50 spots | – |
| 24: HLA-A*0201-restricted 9-mer synthetic peptide from F protein of RSV-B1 strain (LLSLIAVGL) [compound 24] | 1.71 | 42 cytokine-secreting cells per 5×10^5 splenocytes | 5 cytokine-secreting cells per 5×10^5 splenocytes | – | 0 cytokine-secreting cells per 5×10^5 splenocytes | 84.5 cytokine-secreting cells per 5×10^5 splenocytes | over 50 spots | – |
| 25: HLA-A*0201-restricted 9-mer synthetic peptide from F protein of RSV-B1 strain (SLIAVGLLL) [compound 25] | 1.42 | 44.5 cytokine-secreting cells per 5×10^5 splenocytes | 31 cytokine-secreting cells per 5×10^5 splenocytes | – | 96 cytokine-secreting cells per 5×10^5 splenocytes | 41 cytokine-secreting cells per 5×10^5 splenocytes | over 50 spots | ~10% |
